Description: For a given oil phase which is often designed to meet specific market, customer, or application needs, actives or other components in aqueous phase can form and grow large crystals in oil phase due to high solubilities and Oswald Ripening, and result in emulsion destabilization.

SMILES | solubility in methyl soyate [% by wt] | solubilities in acetochlor [ppm]
O=C(Nc1ccc(F)cc1F)c1cccnc1Oc1cccc(C(F)(F)F)c1 [diflufenican] | > 1 | –
COc1cnc(OC)n2nc(NS(=O)(=O)c3c(OCC(F)F)cccc3C(F)(F)F)nc12 [penoxsulam] | – | > 1000
